This passage reports IC50 results from US7501410B2, “Methods of inhibiting BTK and SYK protein kinases” (Roche Palo Alto LLC, priority 2006, dated 2009).

Bounds are passed on as bounds.

T1 sequence (Q06187 whole entry): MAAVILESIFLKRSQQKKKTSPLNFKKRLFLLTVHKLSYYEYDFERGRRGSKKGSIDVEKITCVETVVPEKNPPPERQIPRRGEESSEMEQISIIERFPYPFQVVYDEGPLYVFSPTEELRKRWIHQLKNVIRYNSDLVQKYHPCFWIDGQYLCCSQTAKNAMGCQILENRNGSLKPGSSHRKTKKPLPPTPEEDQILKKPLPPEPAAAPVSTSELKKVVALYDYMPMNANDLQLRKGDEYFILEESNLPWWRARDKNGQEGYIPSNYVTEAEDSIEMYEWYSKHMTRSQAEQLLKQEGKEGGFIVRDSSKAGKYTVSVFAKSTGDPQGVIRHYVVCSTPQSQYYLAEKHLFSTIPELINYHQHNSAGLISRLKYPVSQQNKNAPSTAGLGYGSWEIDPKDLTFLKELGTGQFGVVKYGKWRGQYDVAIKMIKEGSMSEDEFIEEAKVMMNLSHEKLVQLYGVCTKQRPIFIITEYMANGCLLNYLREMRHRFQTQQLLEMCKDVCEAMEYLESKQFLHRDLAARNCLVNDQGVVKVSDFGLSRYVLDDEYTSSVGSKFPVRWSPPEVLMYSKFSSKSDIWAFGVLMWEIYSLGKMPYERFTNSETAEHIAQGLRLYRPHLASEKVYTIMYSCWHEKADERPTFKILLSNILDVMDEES

This test has as its target T1, Bruton's Tyrosine Kinase (Btk) (Homo sapiens, UniProt Q06187).
T1 construct: 5-10 nM Btk enzyme (His-tagged, full-length); His tag
Kind of test: Determination of IC50 of Bruton's Tyrosine Kinase (Btk) inhibition, 33P filtration assay. The class given is biochemical. The note with it: His-tagged full-length Btk, 100 μM ATP. The text has this: Determination of IC50 of Bruton's Tyrosine Kinase (Btk) Inhibition
The assay is a capture of radioactive ^33P phosphorylated product through filtration. The interactions of Btk, biotinylated SH2 peptide substrate (Src homology), and ATP lead to phosphorylation of the peptide substrate. Biotinylated product is bound streptavidin sepharose beads. All bound, radiolabeled products are detected by scintillation counter.
Plates assayed are 96-well polypropylene (Greiner) and 96-well 1.2 μm hydrophilic PVDF filter plates (Millipore). Concentrations reported here are final assay concentrations: 10-100 μM compounds in DMSO (Burdick and Jackson), 5-10 nM Btk enzyme (His-tagged, full-length), 30 μM peptide substrate (Biotin-Aca-[…]-NH2), 100 μM ATP (Sigma), 8 mM imidazole (Sigma, pH 7.2), 8 mM glycerol-2-phosphate (Sigma), 200 μM EGTA (Roche Diagnostics), 1 mM MnCl2 (Sigma), 20 mM MgCl2 (Sigma), 0.1 mg/ml BSA (Sigma), 2 mM DTT (Sigma), 1 μCi ^33P ATP (Amersham), 20% streptavidin sepharose beads (Amersham), 50 mM EDTA (Gibco), 2 M NaCl (Gibco), 2 M NaCl w/1% phosphoric acid (Gibco), microscint-20 (Perkin Elmer).
IC50 determinations are calculated from 10 data points per compound utilizing data produced from a standard 96-well plate assay template. One control compound and seven unknown inhibitors were tested on each plate and each plate was run twice. Typically, compounds were diluted in half-log starting at 100 μM and ending at 3 nM. The control compound was staurosporine. Background was counted in the absence of peptide substrate. Total activity was determined in the presence of peptide substrate. The following protocol was used to determine BTK inhibition.
1) Sample preparation: The test compounds were diluted at half-log increments in assay buffer (imidazole, glycerol-2-phosphate, EGTA, MnCl2, MgCl2, BSA).
2) Bead preparation • a.) rinse beads by centrifuging at 500 g • b.) reconstitute the beads with PBS and EDTA to produce a 20% bead slurry
3) Pre-incubate reaction mix without substrate (assay buffer, DTT, ATP, ^33P ATP) and mix with substrate (assay buffer, DTT, ATP, ^33P ATP, peptide substrate) 30° C. for 15 min.
4) To start assay, pre-incubate 10 μL BTK in enzyme buffer (imidazole, glycerol-2-phosphate, BSA) and 10 μL of test compounds for 10 min at RT.
5) Add 30 μL reaction mixture without or with substrate to BTK and compounds.
6) Incubate 50 μL total assay mix for 30 min at 30° C.
7) Transfer 40 μL of assay to 150 μL bead slurry in filter plate to stop reaction.
8) Wash filter plate after 30 min, with following steps • a. 3 ×250 μL NaCl • b. 3×250 μL NaCl containing 1% phosphoric acid • c. 1×250 μL H2O
9) Dry plate for 1 h at 65° C. or overnight at RT
10) Add 50 μL microscint-20 and count ^33P cpm on scintillation counter.
Calculate percent activity from raw data in cpm percent activity=(sample−bkg)/(total activity−bkg)×100
Compound “4-(5-Methyl-2H-pyrazole-3-ylamino)-phenyl-2H-phthalazin-1-one [Example A-1]” showed an IC50 of 1.25 µM.
The compound `Cc1cc(Nc2nn(C)c(=O)c3ccccc23)n[nH]1` [Example A-3, 2-methyl-4-(5-methyl-1H-pyrazol-3-yl-amino)-2H-phthalazin-1-one] gave an IC50 of 70.5 µM.
The compound `Cc1cc(Nc2nn(CC(C)C)c(=O)c3ccccc23)n[nH]1` [Example A-4, 2-isobutyl-4-(5-methyl-1H-pyrazol-3-ylamino)-2H-phthalazin-1-one] had an IC50 of 11.4 µM.
With `Cc1ccc(-n2nc(Nc3cc(C)[nH]n3)c3ccccc3c2=O)cc1` [Example A-6, 4-(5-methyl-1H-pyrazol-3-ylamino)-2-p-tolyl-2H-phthalazin-1-one] the figure was 38.2 µM; with `Cc1cc(Nc2nn(-c3ccc(F)cc3)c(=O)c3ccccc23)n[nH]1` [Example A-7, 2-(4-fluoro-phenyl)-4-(5-methyl-1H-pyrazol-3-ylamino)-2H-phthalazin-1-one], 6.3 µM.
With `COc1ccc(-n2nc(Nc3cc(C)[nH]n3)c3ccccc3c2=O)cc1` [Example A-9, 2-(4-methoxy-phenyl)-4-(5-methyl-1H-pyrazol-3-ylamino)-2H-phthalazin-1-one] the figure was 5.87 µM; with `Cc1ccc(-n2nc(Nc3cc[nH]n3)c3ccccc3c2=O)cc1` [Example A-10, 4-(1H-pyrazol-3-yl-amino)-2-p-tolyl-2H-phthalazin-1-one], 16.6 µM; with `Cc1cc(Nc2nn(C(C)C)c(=O)c3ccccc23)n[nH]1` [Example A-23, 2-isopropyl-4-(5-methyl-1H-pyrazol-3-ylamino)-2H-phthalazin-1-one], 50.9 µM.
With `Cc1cc(Nc2nn(Cc3ccccc3)c(=O)c3ccccc23)n[nH]1` [Example E-1, 2-Benzyl-4-(5-methyl-1H-pyrazol-3-ylamino)-2H-phthalazin-1-one] the figure was above 100 µM.

A word on the IC50: it is the concentration at which inhibition is half-maximal. A lower IC50 goes with inhibition by little substance.
